The supplement of paper PMC10307832

Legend:
Assay in all cases: relative viability (nuclei count vs DMSO), 5 days (fraction); higher = more cells survive
[1] = test system: 201T
Summary of the method: (§1)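 Lung cancer cell lines, seeded in 1536-well plates, were treated the following day by pin tool with a single drug or with five library-drug doses (not always all listed) in √10 steps on top of a fixed anchor-drug dose. Cells were fixed and nuclei stained in one step after 5 days, and nuclei were counted. Relative viability is the nuclei count for treated wells divided by that for vehicle wells, reported as medians of duplicate plates.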

[2] = test system: ABC-1
Summary of the method: as §1

[3] = test system: BEN
Summary of the method: as §1

[4] = test system: CAL-12T
Summary of the method: as §1

[5] = test system: COR-L 105
Summary of the method: as §1

[6] = test system: COR-L23
Summary of the method: as §1

[7] = test system: EKVX
Summary of the method: as §1

[8] = test system: HARA
Summary of the method: as §1

[9] = test system: HCC-366
Summary of the method: as §1

[10] = test system: LK-2
Summary of the method: as §1

[11] = test system: LU99A
Summary of the method: as §1

[12] = test system: NCI-H1437
Summary of the method: as §1

[13] = test system: NCI-H1666
Summary of the method: as §1

[14] = test system: NCI-H2009
Summary of the method: as §1

[15] = test system: NCI-H2023
Summary of the method: as §1

[16] = test system: NCI-H2170
Summary of the method: as §1

[17] = test system: NCI-H3122
Summary of the method: as §1

[18] = test system: NCI-H441
Summary of the method: as §1

[19] = test system: NCI-H661
Summary of the method: as §1

[20] = test system: NCI-H727
Summary of the method: as §1

[21] = test system: NCI-H838
Summary of the method: as §1

[22] = test system: PC-14
Summary of the method: as §1

COc1cc(N2CCC(C(N)=O)CC2)ccc1Nc1nc(N)c(Cl)c(Nc2ccccc2S(=O)(=O)C(C)C)n1 [HG-5-88-01] + Cc1nc(NC(=O)N2CCC[C@H]2C(N)=O)sc1-c1ccnc(C(C)(C)C(F)(F)F)c1 [Alpelisib] (partner 2 µM)
relative viability ([1]; first compound 0.04 µM): 0.99
relative viability ([1]; first compound 0.1265 µM): 1.06
relative viability ([1]; first compound 0.4 µM): 1.06
relative viability ([1]; first compound 1.265 µM): 0.974
relative viability ([1]; first compound 4 µM): 1.09
relative viability ([2]; first compound 0.04 µM): 0.919
relative viability ([2]; first compound 0.1265 µM): 0.885
relative viability ([2]; first compound 0.4 µM): 0.855
relative viability ([2]; first compound 1.265 µM): 0.713
relative viability ([2]; first compound 4 µM): 0.993
relative viability ([3]; first compound 0.04 µM): 0.948
relative viability ([3]; first compound 0.1265 µM): 1.03
relative viability ([3]; first compound 0.4 µM): 1.04
relative viability ([3]; first compound 1.265 µM): 0.853
relative viability ([3]; first compound 4 µM): 1.15
relative viability ([4]; first compound 0.04 µM): 1.11
relative viability ([4]; first compound 0.1265 µM): 1.3
relative viability ([4]; first compound 0.4 µM): 1.19
relative viability ([4]; first compound 1.265 µM): 1.12
relative viability ([4]; first compound 4 µM): 0.874
relative viability ([5]; first compound 0.04 µM): 0.955
relative viability ([5]; first compound 0.1265 µM): 1.1
relative viability ([5]; first compound 0.4 µM): 0.971
relative viability ([5]; first compound 1.265 µM): 0.606
relative viability ([5]; first compound 4 µM): 0.711
relative viability ([6]; first compound 0.04 µM): 0.774
relative viability ([6]; first compound 0.1265 µM): 0.79
relative viability ([6]; first compound 0.4 µM): 0.68
relative viability ([6]; first compound 1.265 µM): 0.524
relative viability ([6]; first compound 4 µM): 0.462
relative viability ([7]; first compound 0.04 µM): 0.888
relative viability ([7]; first compound 0.1265 µM): 0.914
relative viability ([7]; first compound 0.4 µM): 0.823
relative viability ([7]; first compound 4 µM): 0.814
relative viability ([8]; first compound 0.04 µM): 0.938
relative viability ([8]; first compound 0.1265 µM): 0.777
relative viability ([8]; first compound 0.4 µM): 0.742
relative viability ([8]; first compound 1.265 µM): 0.779
relative viability ([8]; first compound 4 µM): 0.799
relative viability ([9]; first compound 0.04 µM): 0.49
relative viability ([9]; first compound 0.1265 µM): 0.382
relative viability ([9]; first compound 0.4 µM): 0.309
relative viability ([9]; first compound 1.265 µM): 0.418
relative viability ([9]; first compound 4 µM): 0.327
relative viability ([10]; first compound 0.04 µM): 1.16
relative viability ([10]; first compound 0.1265 µM): 1.23
relative viability ([10]; first compound 0.4 µM): 0.975
relative viability ([10]; first compound 1.265 µM): 0.632
relative viability ([10]; first compound 4 µM): 1.8
relative viability ([11]; first compound 0.04 µM): 0.561
relative viability ([11]; first compound 0.1265 µM): 0.514
relative viability ([11]; first compound 0.4 µM): 0.513
relative viability ([11]; first compound 1.265 µM): 0.552
relative viability ([11]; first compound 4 µM): 0.422
relative viability ([12]; first compound 0.04 µM): 1.03
relative viability ([12]; first compound 0.1265 µM): 1.09
relative viability ([12]; first compound 0.4 µM): 0.873
relative viability ([12]; first compound 1.265 µM): 0.964
relative viability ([12]; first compound 4 µM): 1.02
relative viability ([13]; first compound 0.04 µM): 1
relative viability ([13]; first compound 0.1265 µM): 1.02
relative viability ([13]; first compound 0.4 µM): 0.816
relative viability ([13]; first compound 1.265 µM): 0.706
relative viability ([13]; first compound 4 µM): 0.657
relative viability ([14]; first compound 0.04 µM): 1.13
relative viability ([14]; first compound 0.1265 µM): 1.05
relative viability ([14]; first compound 0.4 µM): 1.05
relative viability ([14]; first compound 1.265 µM): 1.17
relative viability ([14]; first compound 4 µM): 1.14
relative viability ([15]; first compound 0.04 µM): 0.659
relative viability ([15]; first compound 0.1265 µM): 0.54
relative viability ([15]; first compound 0.4 µM): 0.539
relative viability ([15]; first compound 1.265 µM): 0.358
relative viability ([15]; first compound 4 µM): 0.474
relative viability ([16]; first compound 0.04 µM): 0.761
relative viability ([16]; first compound 0.1265 µM): 0.833
relative viability ([16]; first compound 0.4 µM): 0.795
relative viability ([16]; first compound 1.265 µM): 0.46
relative viability ([16]; first compound 4 µM): 0.803
relative viability ([17]; first compound 0.04 µM): 0.624
relative viability ([17]; first compound 0.1265 µM): 0.259
relative viability ([17]; first compound 0.4 µM): 0.245
relative viability ([17]; first compound 1.265 µM): 0.195
relative viability ([17]; first compound 4 µM): 0.2
relative viability ([18]; first compound 0.04 µM): 0.752
relative viability ([18]; first compound 0.1265 µM): 0.77
relative viability ([18]; first compound 0.4 µM): 0.845
relative viability ([18]; first compound 1.265 µM): 0.84
relative viability ([18]; first compound 4 µM): 0.893
relative viability ([19]; first compound 0.04 µM): 0.609
relative viability ([19]; first compound 0.1265 µM): 0.773
relative viability ([19]; first compound 0.4 µM): 0.916
relative viability ([19]; first compound 4 µM): 0.693
relative viability ([20]; first compound 0.04 µM): 0.517
relative viability ([20]; first compound 0.1265 µM): 0.512
relative viability ([20]; first compound 0.4 µM): 0.519
relative viability ([20]; first compound 1.265 µM): 0.329
relative viability ([20]; first compound 4 µM): 0.27
relative viability ([21]; first compound 0.04 µM): 1
relative viability ([21]; first compound 0.1265 µM): 1.1
relative viability ([21]; first compound 0.4 µM): 0.917
relative viability ([21]; first compound 1.265 µM): 0.9
relative viability ([21]; first compound 4 µM): 0.896
relative viability ([22]; first compound 0.04 µM): 0.884
relative viability ([22]; first compound 0.1265 µM): 0.849
relative viability ([22]; first compound 0.4 µM): 0.882
relative viability ([22]; first compound 1.265 µM): 0.89
relative viability ([22]; first compound 4 µM): 0.851
